Test results taken from patent US20240189389A1, “DRUG WITH PROLONGED ANALGESIC ACTION” (priority 2020, published 2024).

Assays:
[1] = reduced only in part with repeated dosing; cited from earlier work
[2] = system: ICR male white mice; assay: Formalin test on mice; assay type: in vivo; details: oral, 100 mg/kg (positive control)
Method: Tests are performed on ICR male white mice of 20-30 g body weight. Mice are divided into 4 groups (a control one and experimental ones) of 9 mice each. The tested HCRG21 peptide is dissolved in a sterile physiological saline solution and is administered intramuscularly at the doses of 0.1 and 1.0 mg/kg. Control animals receive the equivalent volume of sterile physiological saline solution. Ibuprofen at the dose of 100 mg/kg is used as a positive control and is administered to animals orally. 60 minutes later all mice are injected in a hinder paw pad with 20 μl of 2.5% formalin solution. Patterns of pain response are recorded immediately after the injection (a number of paw licking episodes and a hind paw withdrawal time) according to the following schedule:
1st period (acute): for 20 min after the injection patterns are recorded per 1 min with 6-minute intervals (0, 6, 12 and 18 min);
2nd period (tonic): 30 min after the formalin injection patterns are recorded for 20 min per 1 min with 6-minute intervals (30, 36, 42, 48 min).
The analgesic effect is evaluated by the decrease of the duration of pain response patterns relative to control animals (FIG. 9). The results are statistically processed, statistical significance of differences of the results of control and experimental group is determined using the Student's test.

[3] = phase I clinical trial data; cited from earlier work
[4] = biological target: T1, TRPV1 (Homo sapiens, UniProt Q8NER1); details: high dose (400 mg); cited from earlier work
T1 construct: host or cells: human subjects (in vivo)
T1 sequence (Q8NER1 whole entry): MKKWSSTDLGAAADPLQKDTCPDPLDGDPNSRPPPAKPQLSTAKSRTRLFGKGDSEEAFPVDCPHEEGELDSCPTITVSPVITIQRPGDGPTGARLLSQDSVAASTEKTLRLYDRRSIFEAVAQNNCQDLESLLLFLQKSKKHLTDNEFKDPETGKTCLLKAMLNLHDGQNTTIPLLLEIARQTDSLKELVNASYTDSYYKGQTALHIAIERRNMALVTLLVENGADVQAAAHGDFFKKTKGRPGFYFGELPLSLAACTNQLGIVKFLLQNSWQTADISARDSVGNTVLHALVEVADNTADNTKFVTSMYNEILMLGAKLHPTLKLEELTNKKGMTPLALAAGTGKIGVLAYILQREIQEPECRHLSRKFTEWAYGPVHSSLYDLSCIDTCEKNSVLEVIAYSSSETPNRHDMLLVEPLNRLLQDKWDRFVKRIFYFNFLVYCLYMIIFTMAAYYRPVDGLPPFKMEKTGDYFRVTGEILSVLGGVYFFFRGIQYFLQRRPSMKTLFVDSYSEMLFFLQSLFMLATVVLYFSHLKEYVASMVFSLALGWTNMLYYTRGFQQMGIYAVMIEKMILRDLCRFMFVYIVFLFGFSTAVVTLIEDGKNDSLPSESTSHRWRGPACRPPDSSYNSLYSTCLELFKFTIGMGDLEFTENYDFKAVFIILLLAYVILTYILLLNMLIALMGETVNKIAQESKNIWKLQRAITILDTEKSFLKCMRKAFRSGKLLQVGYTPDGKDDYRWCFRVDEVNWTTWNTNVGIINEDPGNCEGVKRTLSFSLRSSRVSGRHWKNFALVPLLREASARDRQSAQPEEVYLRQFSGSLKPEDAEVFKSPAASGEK

Question: For `CC(=O)Nc1nc2c(Oc3cc(-c4ccc(C(F)(F)F)cc4)ncn3)cccc2s1` [AMG-517], which “temperature increase in humans” value [1] is on record?
Answer: high and steady temperature increase

Question: For `CC(C)Cc1ccc(C(C)C(=O)O)cc1` (stereo not shown) [Ibuprofen, ibuprofen], which “analgesic properties compared with HCRG21” value [2] is on record?
Answer: concedes much to the HCRG21 peptide

Question: With `O=C(Nc1ccccc1Br)N[C@@H]1CCN(c2ccc(C(F)(F)F)cn2)C1` [SB-705498] as the molecule, how does the elimination half-life [3] read?
Answer: 35 to 93 h

Question: And the “pharmacodynamic activity in the reduction of inflammation induced by heat injuries, UV radiation and capsaicin” value [4]?
Answer: evidences a target pharmacodynamic activity
